Values quoted from earlier work in patent publication US20060148027A1, “Sprouty and SPRED protein biosensors” (Board of Regents, the University of Texas System, priority 2005, published 2006).

Settings: known potential of the reference redox dye

## Cc1cc2nc3cc(C)c(N)cc3[n+](-c3ccccc3)c2cc1N.[Cl-] [Safranine O]
  redox potential: −289 mV
